# Tests used:
# Assay in all cases: relative viability (nuclei count vs DMSO), 5 days (fraction); higher = more cells survive
# [1] = compound: C1CNCCC1C2=CC(=NN2)C3=CC=NC=C3 + COc1cc2c(Oc3ccc(NC(=O)C4(C(=O)Nc5ccc(F)cc5)CC4)cc3F)ccnc2cc1OCCCN1CCOCC1 [Foretinib] (partner 0.25 µM)
# Method in brief: (§1)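 A single step with final 0.05% Triton X-100, 1% formaldehyde and 1 ug/ml Hoechst fixed the cells and stained nuclei 5 days after treatment. Lung cancer cell lines in 1536-well plates had been treated by pin tool the day after seeding with one drug alone or a fixed anchor-drug dose plus five library-drug doses (not always all listed) in √10 steps, and nuclei were counted on 4× images. Relative viability is the ratio of nuclei in treated wells to nuclei in vehicle wells, taken as the median of duplicate plates.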
# [2] = compound: C[C@@H](N)c1ccc(C(=O)Nc2ccnc3[nH]ccc23)cc1 + CC1(C)CCC(c2ccc(Cl)cc2)=C(CN2CCN(c3ccc(C(=O)NS(=O)(=O)c4ccc(N[C@H](CCN5CCOCC5)CSc5ccccc5)c(S(=O)(=O)C(F)(F)F)c4)cc3)CC2)C1 [Navitoclax] (partner 0.5 µM)
# Method in brief: as §1
# [3] = compound: C[C@@H](N)c1ccc(C(=O)Nc2ccnc3[nH]ccc23)cc1 + Cc1nc(NC(=O)N2CCC[C@H]2C(N)=O)sc1-c1ccnc(C(C)(C)C(F)(F)F)c1 [Alpelisib] (partner 2 µM)
# Method in brief: as §1
# [4] = compound: O[C@H]1CC[C@H](Nc2ncc3nc(Nc4c(F)cc(F)cc4F)n([C@H]4CCOC4)c3n2)CC1 [Tanzisertib] + CC(=O)Nc1cccc(-n2c(=O)n(C3CC3)c(=O)c3c(Nc4ccc(I)cc4F)n(C)c(=O)c(C)c32)c1 [Trametinib] (partner 0.02 µM)
# Method in brief: as §1
Cell Line,relative viability ([1]; first compound 0.08 µM),relative viability ([1]; first compound 0.8 µM),relative viability ([1]; first compound 2.53 µM),relative viability ([1]; first compound 8 µM),relative viability ([2]; first compound 0.04 µM),relative viability ([2]; first compound 0.1265 µM),relative viability ([2]; first compound 0.4 µM),relative viability ([2]; first compound 1.265 µM),relative viability ([2]; first compound 4 µM),relative viability ([3]; first compound 0.04 µM),relative viability ([3]; first compound 0.1265 µM),relative viability ([3]; first compound 0.4 µM),relative viability ([3]; first compound 1.265 µM),relative viability ([3]; first compound 4 µM),relative viability ([4]; first compound 0.08 µM),relative viability ([4]; first compound 0.253 µM),relative viability ([4]; first compound 0.8 µM),relative viability ([4]; first compound 2.53 µM),relative viability ([4]; first compound 8 µM)
201T,1.08,1.21,1.3,1.03,1.15,1.1,1.16,1.2,1.37,1.06,1.01,1.01,1.06,1.24,0.731,0.756,0.701,0.806,0.764
A549,0.932,0.979,1.03,1.01,1.23,1.31,1.18,1.21,0.714,0.877,0.834,0.846,0.751,0.559,,,,,
A-427,1.11,1.21,1.13,1.04,1.02,0.992,0.993,,0.855,1.12,1.13,1.08,,1.07,0.813,0.745,0.742,0.736,0.751
ABC-1,1.04,1.1,1.46,1.35,,,,,,1.22,1.04,1.37,1.58,0.809,,,,,
BEN,0.548,0.752,0.646,0.692,0.0518,0.0703,0.0684,0.0653,0.122,1.07,0.995,1.09,1.25,0.731,1.06,1.09,1.04,1.08,1.09
CAL-12T,1.09,1.11,1.22,1.06,1.3,1.33,1.48,1.77,1.47,1.37,1.36,1.43,1.54,0.903,0.317,0.336,0.396,0.387,0.432
COR-L23,1.07,0.946,1.01,0.931,1.03,1.16,0.886,0.766,0.481,0.699,0.788,0.921,0.801,0.381,0.717,0.627,0.7,0.616,0.547
COR-L 105,1.22,1.07,1.13,1.67,0.795,0.74,0.783,0.769,0.519,0.876,1.07,0.918,0.957,0.65,0.43,0.493,0.485,0.448,0.37
Calu-6,0.951,0.912,0.781,0.914,0.849,1.02,0.855,0.836,0.678,0.958,1.01,0.904,0.765,0.797,,,,,
ChaGo-K-1,0.997,1.01,0.886,0.923,1.07,1.01,1.19,,0.891,,,,,,0.902,0.896,0.821,0.91,0.832
EBC-1,0.116,0.111,0.0919,0.135,0.414,0.406,0.379,0.377,0.347,0.97,0.775,0.797,0.771,0.93,,,,,
EKVX,0.902,0.437,1.5,0.716,0.914,1.15,1.32,1.07,0.807,0.897,0.95,0.887,0.895,0.748,0.487,0.301,0.368,0.347,0.295
EMC-BAC-2,0.937,1.05,1.16,0.843,1.28,1.18,1.21,1.4,0.977,0.772,0.723,0.696,0.74,0.54,0.904,0.84,0.864,0.955,0.962
EPLC-272H,0.647,0.674,0.678,0.706,1.14,1.26,1.26,,0.975,1.1,0.961,1.05,,1.1,0.318,0.279,0.322,0.317,0.297
H3255,0.861,0.983,1.03,0.9,0.554,0.846,0.769,0.575,0.45,0.774,0.742,0.806,0.716,0.673,0.696,0.646,0.766,0.726,0.523
HARA,0.842,1.21,0.993,0.707,1.14,1.2,1.19,1.27,0.889,0.813,0.928,0.914,0.796,0.598,0.801,0.692,0.689,0.711,0.687
HCC-15,0.899,1.18,1.07,1.03,0.712,0.689,0.738,,0.645,0.969,0.871,0.996,,0.917,0.406,0.364,0.414,0.36,0.342
HCC-44,,,,,0.979,0.99,1.15,0.946,0.698,0.886,0.736,0.91,0.847,0.588,1.17,1.08,1.09,0.979,1.06
HCC-78,0.532,0.507,0.602,0.536,1.08,0.79,1.2,1.11,0.782,0.505,0.354,0.483,0.577,0.33,0.847,0.737,0.889,0.787,0.842
HCC-366,0.95,0.946,0.905,1.03,1.04,1.15,1.16,,0.923,0.41,0.398,0.581,,0.329,,0.39,0.376,0.292,0.258
HCC-827,1.04,1.07,1.01,1.12,0.872,0.993,0.971,1.05,0.843,0.982,1.09,1.04,1.03,0.895,0.556,0.552,0.481,0.411,0.265

Cell Line,relative viability ([1]; first compound 0.08 µM),relative viability ([1]; first compound 0.8 µM),relative viability ([1]; first compound 2.53 µM),relative viability ([1]; first compound 8 µM),relative viability ([2]; first compound 0.04 µM),relative viability ([2]; first compound 0.1265 µM),relative viability ([2]; first compound 0.4 µM),relative viability ([2]; first compound 1.265 µM),relative viability ([2]; first compound 4 µM),relative viability ([3]; first compound 0.04 µM),relative viability ([3]; first compound 0.1265 µM),relative viability ([3]; first compound 0.4 µM),relative viability ([3]; first compound 1.265 µM),relative viability ([3]; first compound 4 µM),relative viability ([4]; first compound 0.08 µM),relative viability ([4]; first compound 0.253 µM),relative viability ([4]; first compound 0.8 µM),relative viability ([4]; first compound 2.53 µM),relative viability ([4]; first compound 8 µM)
HOP-62,1.06,1.31,1.18,1.09,1.08,0.959,1.06,,0.85,0.761,0.825,0.793,0.705,0.805,0.389,0.341,0.435,0.412,0.346
IA-LM,1.09,1.37,1.19,1.26,0.799,0.93,0.929,1.03,0.989,0.83,0.999,1.09,1.11,1.06,,,,,
LC-2-ad,,0.956,0.997,0.948,0.398,0.566,0.585,0.346,0.262,0.894,0.862,0.807,0.843,0.61,1,0.915,0.973,0.932,0.877
LCLC-97TM1,0.946,0.888,0.938,0.904,0.405,0.507,0.44,0.786,0.836,0.242,0.239,0.343,0.373,0.48,0.236,0.227,0.234,0.172,0.172
LCLC-103H,0.777,0.695,0.72,0.883,,,,,,1.15,0.956,1.03,0.94,0.828,0.661,0.744,0.703,0.691,0.71
LK-2,1.05,1.27,1.03,1.42,0.976,1.18,0.927,0.82,0.762,1.3,1.02,1.17,,0.83,0.916,0.76,0.816,0.694,0.866
LOU-NH91,0.944,0.911,1,0.936,0.61,0.679,0.602,0.615,0.615,0.684,0.764,0.671,0.609,0.613,0.824,0.811,0.773,0.756,0.71
LU99A,0.766,0.87,0.864,0.797,0.834,0.851,0.967,0.839,0.798,0.554,0.554,0.562,0.545,0.52,0.632,0.573,0.591,0.531,0.559
NCI-H358,0.551,0.672,0.727,0.69,,,,,,0.846,0.739,0.821,0.767,0.73,0.141,0.134,0.151,0.155,0.133
NCI-H522,,,,,,,,,,,,,,,0.766,0.535,0.688,0.826,0.69
NCI-H650,1,0.924,1.06,0.998,,,,,,1.19,1.15,1.06,,0.841,0.975,0.946,1.06,0.983,0.874
NCI-H661,1.1,1.05,1.01,1.02,,,,,,0.77,1.05,0.914,0.157,0.634,0.684,0.574,0.55,0.647,0.54
NCI-H1299,1.1,1.08,1.07,1.08,1.06,0.988,0.983,0.973,0.932,1.05,1.04,0.997,0.894,0.926,,,,,
NCI-H1563,0.727,0.94,0.943,0.973,,,,,,0.958,0.995,0.985,0.971,0.918,,,,,
NCI-H1623,0.891,0.702,1.03,0.924,,,,,,,,,,,,,,,
NCI-H1648,,,,,,,,,,,,,,,0.492,0.459,0.51,0.5,0.482
NCI-H1650,0.798,0.98,1.16,1.21,1.35,1.3,1.4,1.45,0.863,,,,,,0.458,0.689,0.609,0.532,0.415
NCI-H1703,0.389,0.355,0.349,0.348,1.28,1.11,1.06,,0.616,0.332,0.382,0.345,,0.317,,,,,
NCI-H1792,,,,,0.668,0.592,0.644,0.415,0.567,0.733,0.648,0.745,0.691,0.62,0.501,0.455,0.35,0.413,0.244
NCI-H2342,0.899,1.04,1.21,1.29,,,,,,,,,,,0.791,0.733,0.804,0.863,0.938
SW 900,0.899,1.01,0.856,1.01,,,,,,,,,,,,0.868,0.857,0.552,0.737
